Where two headings read alike, the source gives them in different places.
Legend:
RORγt [1] = molecular target: T1, RORγt (Homo sapiens, UniProt P51449); assay: RORγt binding test using fluorescent-labeled cholesterol (TR-FRET); conditions: read-out: Binding inhibitory rate of fluorescent-labeled cholesterol to RORγt at test compound 1 μM (%)
T1 sequence (P51449 1-497 isoform P51449-2): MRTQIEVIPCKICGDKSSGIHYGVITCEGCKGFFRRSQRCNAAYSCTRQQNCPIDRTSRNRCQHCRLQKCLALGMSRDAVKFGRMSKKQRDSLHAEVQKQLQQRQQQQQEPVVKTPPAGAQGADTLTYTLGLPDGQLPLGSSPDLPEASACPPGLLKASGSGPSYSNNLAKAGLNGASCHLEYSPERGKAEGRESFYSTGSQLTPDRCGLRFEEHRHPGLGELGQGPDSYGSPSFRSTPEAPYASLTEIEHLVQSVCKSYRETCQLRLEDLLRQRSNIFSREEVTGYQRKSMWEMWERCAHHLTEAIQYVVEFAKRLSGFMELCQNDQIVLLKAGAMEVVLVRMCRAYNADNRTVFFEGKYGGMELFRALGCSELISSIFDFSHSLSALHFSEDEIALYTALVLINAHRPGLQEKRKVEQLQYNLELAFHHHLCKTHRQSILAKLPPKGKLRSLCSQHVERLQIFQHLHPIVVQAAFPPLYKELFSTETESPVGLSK
Protocol: RORγt Binding Test Using Fluorescent-labeled Cholesterol
The binding activity of the test compound to RORγt was measured by a time resolved fluorescence resonance energy transfer method (TR-FRET) utilizing histidine-tagged RORγt, fluorescent-labeled cholesterol (BODIPY-cholesterol, AVIVA), and terbium-labeled anti-histidine tag antibody (Invitrogen). First, a test compound diluted with an assay buffer (20 mM Tris-HCl (pH 7.5), 100 mM NaCl, 1 mM DTT, 0.1% BSA) was added to a 384 well plate by 3 μL. Then, RORγt diluted with an assay buffer to 240 nM was added by 3 μL, after which fluorescent-labeled cholesterol diluted with the assay buffer to 12 μM was added by 3 μL, and the mixture was stood at room temperature for 20 min. Thereafter, a terbium-labeled anti-histidine tag antibody diluted with the assay buffer to 8 nM was added by 3 μL. The mixture was stood at room temperature for 20 min, and fluorescence intensity (excitation wavelength 320 nm, fluorescence wavelength 520 nm, delay time 100 microseconds) was measured by Envision (PerkinElmer).

RORγt [2] = molecular target: T1, RORγt; assay: Cofactor recruitment test (Alpha Screen, biotinylated SRC-1 peptide); type: biochemical; conditions: read-out: Signal value inhibitory rate at test compound 1 μM (%)
Protocol: Cofactor Recruitment Test
Cofactor recruitment test was performed by Alpha Screen (Histidine Detection Kit, PerkinElmer) method. First, a test compound was diluted with an assay buffer (50 mM Tris-HCl (pH 7.5), 50 mM KCl, 1 mM DTT, 0.1% BSA) and added to a 384 well plate by 5 μL. […] The mixture was stood in a dark place for 1 hr, and the signal value was measured by Envision (PerkinElmer).

RORγt [3] = molecular target: T1, RORγt; assay: Jurkat reporter test (human IL-17 ROR response element luciferase, RORγt vector); type: cell-based; conditions: read-out: Luminescence level inhibitory rate at test compound 3 μM (%)
Protocol: The Jurkat cells used for the reporter test were cultured in a culture medium (RPMI (Invitrogen), 10% FCS (AusGeneX), 100 U/mL penicillin, 100 μg/mL streptomycin). On the day of the test, 4×10^7 cells were recovered by a centrifugal operation (1000 rpm, 5 min.) and suspended in PBS (phosphate buffered saline) (Invitrogen). Thereafter, the cells were recovered again by a centrifugal operation, and suspended in 2 mL of R buffer (NEON transfection kit, Invitrogen). […] Gene transfer was performed by Electroporation apparatus (NEON, Invitrogen) under the conditions of pulse voltage 1350 V, interval 10 milliseconds, number of times 3. The cells after gene transfer were suspended in 40 mL of a reaction medium (RPMI, 10% Lipid reduced FCS (HyClone), 10 mM HEPES (pH 7.5), 100 U/mL penicillin, 100 μg/mL streptomycin, 5 μM lovastatin), and plated in a 96 well plate by 90 μL. A test compound diluted with the reaction medium was added by 10 μL, and the cells were cultured overnight in an incubator. Bright-Glo (Promega) was added by 100 μL, and the mixture was stirred at room temperature for 10 min, and the luminescence level was measured by Envision (PerkinElmer).

[4] = test compound 3 μM, Jurkat cells

| Compound | inhibition at 3 µM (RORγt [3]; [4]) | inhibition at 1 µM (RORγt [1]) | inhibition at 1 µM (RORγt [2]) | inhibition at 3 µM (RORγt [3]; Jurkat) |
| --- | --- | --- | --- | --- |
| COc1ccc2c(c1)CCN(C(=O)Cc1cc(O)no1)[C@H]2C(=O)Nc1cc(F)c([Si](C)(C)C)c(F)c1 [Example 85, (1R)-N-(3,5-difluoro-4-(trimethylsilyl)phenyl)-2-((3-hydroxy-1,2-oxazol-5-yl)acetyl)-6-methoxy-1,2,3,4-tetrahydroisoquinoline-1-carboxamide] |  | 103% | 99% | 101% |
| CC[Si](C)(C)c1c(F)cc(NC(=O)[C@H]2c3ccc(OC)cc3CCN2C(=O)CCC(=O)O)cc1F [Example 87, 4-((1R)-1-((4-(ethyl (dimethyl)silyl)-3,5-difluorophenyl)carbamoyl)-6-methoxy-3,4-dihydroisoquinolin-2 (1H)-yl)-4-oxobutanoic acid] |  | 102% | 98% | 102% |
| CC[Si](C)(C)c1c(F)cc(NC(=O)[C@H]2c3ccc(OC)nc3CCN2C(=O)Cc2cc(O)no2)cc1F [Example 113, (5R)-N-(4-(ethyl (dimethyl)silyl)-3,5-difluorophenyl)-6-((3-hydroxy-1,2-oxazol-5-yl)acetyl)-2-methoxy-5,6,7,8-tetrahydro-1,6-naphthyridine-5-carboxamide] |  | 104% | 99% | 101% |
| COc1ccc2c(n1)CCN(C(=O)c1cc(O)no1)[C@H]2C(=O)Nc1cc(F)c([Si](C)(C)C)c(F)c1 [Example 122, (5R)-N-(3,5-difluoro-4-(trimethylsilyl)phenyl)-6-((3-hydroxy-1,2-oxazol-5-yl)carbonyl)-2-methoxy-5,6,7,8-tetrahydro-1,6-naphthyridine-5-carboxamide] |  | 102% | 99% | 103% |
| COc1ccc2c(n1)CCN(C(=O)Cc1cc(O)no1)[C@H]2C(=O)Nc1cc(F)c([Si](C)(C)C)c(F)c1 [Example 124, (5R)-N-(3,5-difluoro-4-(trimethylsilyl)phenyl)-6-((3-hydroxy-1,2-oxazol-5-yl)acetyl)-2-methoxy-5,6,7,8-tetrahydro-1,6-naphthyridine-5-carboxamide] |  | 101% | 99% | 102% |
| CCOc1ccc2c(n1)CCN(C(=O)Cc1cc(O)no1)[C@H]2C(=O)Nc1cc(F)c([Si](C)(C)C)c(F)c1 [Example 128, (5R)-N-(3,5-difluoro-4-(trimethylsilyl)phenyl)-2-ethoxy-6-((3-hydroxy-1,2-oxazol-5-yl)acetyl)-5,6,7,8-tetrahydro-1,6-naphthyridine-5-carboxamide] |  | 103% | 100% | 103% |
| CCOc1ccc2c(n1)CCN(C(=O)c1cc(O)no1)[C@H]2C(=O)Nc1ccc([Si](C)(C)C)c(F)c1 [Example 149, (5R)-2-ethoxy-N-(3-fluoro-4-(trimethylsilyl)phenyl)-6-((3-hydroxy-1,2-oxazol-5-yl)carbonyl)-5,6,7,8-tetrahydro-1,6-naphthyridine-5-carboxamide] |  | 103% | 99% | 103% |
| CC[Si](C)(C)c1c(F)cc(NC(=O)[C@H]2c3ccc(COC)nc3CCN2C(=O)Cc2cc(O)no2)cc1F [Example 173, (5R)-N-(4-(ethyl (dimethyl)silyl)-3,5-difluorophenyl)-6-((3-hydroxy-1,2-oxazol-5-yl)acetyl)-2-(methoxymethyl)-5,6,7,8-tetrahydro-1,6-naphthyridine-5-carboxamide] |  | 101% | 97% | 99% |

Continued, in another order:

| inhibition at 3 µM (RORγt [3]; [4]) | Compound | inhibition at 1 µM (RORγt [1]) | inhibition at 1 µM (RORγt [2]) | inhibition at 3 µM (RORγt [3]; Jurkat) |
| --- | --- | --- | --- | --- |
| 100% | CCOc1ccc2c(n1)CCN(C(=O)c1cc(O)no1)[C@H]2C(=O)Nc1cc(F)c2c(c1)CCC2(C)C [Example 145, (5R)-2-ethoxy-N-(7-fluoro-1,1-dimethyl-2,3-dihydro-1H-inden-5-yl)-6-((3-hydroxy-1,2-oxazol-5-yl)carbonyl)-5,6,7,8-tetrahydro-1,6-naphthyridine-5-carboxamide] | 102% | 92% |  |
| 93% | COc1ccc2c(c1)CCN(C(=O)c1cc(O)no1)[C@H]2C(=O)Nc1cc(F)c(C(C)(C)COCC2CC2)c(F)c1 [Example 158, (1R)-N-(4-(1-(cyclopropylmethoxy)-2-methylpropan-2-yl)-3,5-difluorophenyl)-2-((3-hydroxy-1,2-oxazol-5-yl)carbonyl)-6-methoxy-1,2,3,4-tetrahydroisoquinoline-1-carboxamide] | 101% | 76% |  |
| 98% | COc1ccc2c(c1)CCN(C(=O)c1cc(O)no1)[C@H]2C(=O)Nc1cc(F)c(C(C)(C)COCC(F)F)c(F)c1 [Example 160, (1R)-N-(4-(1-(2,2-difluoroethoxy)-2-methylpropan-2-yl)-3,5-difluorophenyl)-2-((3-hydroxy-1,2-oxazol-5-yl)carbonyl)-6-methoxy-1,2,3,4-tetrahydroisoquinoline-1-carboxamide] | 100% | 82% |  |
| 90% | COc1ccc2c(c1)CCN(C(=O)CCCC(=O)O)[C@H]2C(=O)Nc1cc(F)c(C(C)(C)COCC2CC2)c(F)c1 [Example 161, 5-((1R)-1-((4-(1-(cyclopropylmethoxy)-2-methylpropan-2-yl)-3,5-difluorophenyl)carbamoyl)-6-methoxy-3,4-dihydroisoquinolin-2 (1H)-yl)-5-oxopentanoic acid] | 100% | 76% |  |
| 95% | COc1ccc2c(c1)CCN(C(=O)CCCC(=O)O)[C@H]2C(=O)Nc1cc(F)c(C(C)(C)COCC(F)F)c(F)c1 [Example 162, 5-((1R)-1-((4-(1-(2,2-difluoroethoxy)-2-methylpropan-2-yl)-3,5-difluorophenyl)carbamoyl)-6-methoxy-3,4-dihydroisoquinolin-2(1H)-yl)-5-oxopentanoic acid] | 99% | 82% |  |
| 101% | CCOc1ccc2c(c1)CCN(C(=O)CCCC(=O)O)[C@H]2C(=O)Nc1cc(F)c(C(C)(C)COC)c(F)c1 [Example 164, 5-((1R)-1-((3,5-difluoro-4-(1-methoxy-2-methylpropan-2-yl)phenyl)carbamoyl)-6-ethoxy-3,4-dihydroisoquinolin-2(1H)-yl)-5-oxopentanoic acid] | 101% | 96% |  |
| 101% | CCOc1ccc2c(c1)CCN(C(=O)Cc1cc(O)no1)[C@H]2C(=O)Nc1cc(F)c(C(C)(C)COC)c(F)c1 [Example 165, (1R)-N-(3,5-difluoro-4-(1-methoxy-2-methylpropan-2-yl)phenyl)-6-ethoxy-2-((3-hydroxy-1,2-oxazol-5-yl)acetyl)-1,2,3,4-tetrahydroisoquinoline-1-carboxamide] | 101% | 96% |  |
| 99% | CCOCC(C)(C)c1c(F)cc(NC(=O)[C@H]2c3ccc(OCC)cc3CCN2C(=O)Cc2cc(O)no2)cc1F [Example 168, (1R)-6-ethoxy-N-(4-(1-ethoxy-2-methylpropan-2-yl)-3,5-difluorophenyl)-2-((3-hydroxy-1,2-oxazol-5-yl)acetyl)-1,2,3,4-tetrahydroisoquinoline-1-carboxamide] | 97% | 86% |  |
